Earlier results, collected in patent publication US10662178B2, “Crystalline form of Olaparib” (Apotex Inc., priority 2018, dated 2020).

Conditions: CHMP Assessment Report EMEA/H/C/003726/0000

Biopharmaceutics Classification System (BCS) class: Class IV
solubility (drug substance in the approved drug product LYNPARZA): low solubility
Compound: O=C(c1cc(Cc2n[nH]c(=O)c3ccccc23)ccc1F)N1CCN(C(=O)C2CC2)CC1 [Olaparib, 4-[(3-{[4-(cyclopropylcarbonyl)-piperazin-1-yl]carbonyl}-4-fluorophenyl)methyl]phthalazin-1(2H)-one]
